This is an account of results in US12390441B2, “Immunomodulating o-het/aryl azalides” (Zoetis Services LLC, priority 2020, dated 2025).

For one test, the system named is TNF-α. Nature of the test: Whole blood assay, LPS stimulation, MSD cytokine detection. Format: cell-based. The settings on record: Bos taurus, fresh whole bovine blood.
A further test deals with IL-1β. The description is as above. In kind it is cell-based, bovine. To be noted: fresh whole bovine blood, LPS stimulation; drug concentration giving overstimulation (OS) of IL-1β.
The subject of a further test is IL-6. Described as above. In kind it is cell-based. The settings on record: Bos taurus, fresh whole bovine blood.
A further test has as its system P. multocida 46572. Nature of the test: In vivo mouse lung infection challenge model (murine). On the set-up: species or system CD-1 female mice. To be noted: for % Survival: 46572, sc, 20 mg/kg, 240 h. As for the experimental part:
The challenge organism was P. multocida 46572. Target challenge concentration was 5×10^2 CFU/mouse. Isolated colonies from overnight growth (37° C. with 5% CO2) on trypticase soy agar (TSA II) blood plates were transferred to room temperature Brain Heart Infusion Broth (BHIB). The broth culture was incubated 3.5-4 hours to approximately mid-log phase of growth, as measured by forward light scatter at 600 nm (OD600, 0.200). The culture was centrifuged to collect the bacterial pellet. The pellet was re-suspended in BHIB and adjusted to provide an approximate concentration of 2.7 log^10 colony forming units (CFU) in 0.04 mL at the highest concentration. The challenge inoculum concentration was confirmed by serial dilutions of the inoculum for CFU enumeration. On Day −5, CD-1 female mice were received. Mice were given standard rodent diet and water ad libitum. On Day 0, bacterial inoculum (0.04 mL) was administered to each mouse (n=36) intranasally. Compounds of the invention were dosed at 20 mg/kg (0.1 mL) in a buffered (˜pH 5.4) propylene glycol, monothioglycerol and water solution by subcutaneous injection. Animals were observed from Days 1-10. The study was terminated on Day 10. In addition, some treatment groups were sampled at 6, 24, and 48 hours post bacterial challenge for RNA sequence analysis of lung tissue.
The murine efficacy model (P. multocida challenge) was optimized, and the treatment group size was powered to be able to observe statistically significant improvement of survival to expected ranges for immunomodulatory compounds. The experimental design was a randomized complete block design. Mice were individually identified and treatment groups comingled within a cage, with every treatment group equally represented across cages. Mortality was the primary variable. Mortality data was analyzed using a generalized mixed model with fixed effect of treatment and random effect of block. Survival time was also analyzed using the SAS PHREG (survival analysis) procedure to examine whether there were significant differences between treatment groups and the control group. Numerous compounds of the invention and M9 (positive control) were tested in this model at a dose of 20 mg/kg (Table 3). Typical percent survival for no treatment control is in the range of 0-20% based on study to study variation in challenge inoculum and rate of infection. […] Mouse survival for M9 was about 90-100%, further supporting its residual antibacterial properties against the bacterial strain. Harmonized survival accounts for % survival relative to vehicle (“−” control) and M9 (“+” control)) survival data (Table 3).

As a reminder, the IC50 is the point on the concentration scale where inhibition reaches its midpoint. Take `CC[C@H]1OC(=O)[C@H](C)[C@@H](O)[C@H](C)[C@@H](O[C@@H]2O[C@H](C)C[C@H](NC)[C@H]2Oc2ccc(F)cc2)[C@](C)(O)C[C@@H](C)CN[C@H](C)[C@@H](O)[C@]1(C)O` [Example B-4, (2R,3S,4R,5R,8R,10R,11R,12S,13S,14R)-2-ethyl-11-(((2S,3R,4S,6R)-3-(4-fluorophenoxy)-6-methyl-4-(methylamino)tetrahydro-2H-pyran-2-yl)oxy)-3,4,10,13-tetrahydroxy-3,5,8,10,12,14-hexamethyl-1-oxa-6-azacyclopentadecan-15-one]: the IC50 in the test with TNF-α and with IL-6 was 50 µM in each case. Moreover, the “IL-1ß OS of LPS” value in the test with IL-1β worked out at 100 µM. The “% Survival” value with P. multocida 46572 is recorded as 0%. For the same compound, in the test with P. multocida 46572 (mouse, in vivo), the “clinical efficacy, P. multocida infection in mice” value is listed as “clinically efficacious”.
Consider `CC[C@H]1OC(=O)[C@H](C)[C@@H](O)[C@H](C)[C@@H](O[C@@H]2O[C@H](C)C[C@H](N(C)C(=O)N(C)c3ccccc3)[C@H]2Oc2ccc(OC)cc2)[C@](C)(O)C[C@@H](C)CN[C@H](C)[C@@H](O)[C@]1(C)O` [Example C-1, 1-((2S,3R,4S,6R)-2-(((2R,3S,4R,5R,8R,10R,11R,12S,13S,14R)-2-ethyl-3,4,10,13-tetrahydroxy-3,5,8,10,12,14-hexamethyl-15-oxo-1-oxa-6-azacyclopentadecan-11-yl)oxy)-3-(4-methoxyphenoxy)-6-methyltetrahydro-2H-pyran-4-yl)-1,3-dimethyl-3-phenylurea], for which the results for the IC50 with TNF-α and with IL-6 were 8 µM and 19 µM, respectively. The “IL-1ß OS of LPS” value with IL-1β stood at 16 µM. In addition, the “% Survival” value with P. multocida 46572 worked out at 33%.
With `CC[C@H]1OC(=O)[C@H](C)[C@@H](O)[C@H](C)[C@@H](O[C@@H]2O[C@H](C)C[C@H](N(C)C(=O)N(C)c3ccccc3)[C@H]2Oc2ccccc2)[C@](C)(O)C[C@@H](C)CN[C@H](C)[C@@H](O)[C@]1(C)O` [Example C-2, 1-((2S,3R,4S,6R)-2-(((2R,3S,4R,5R,8R,10R,11R,12S, 13S, 14R)-2-ethyl-3,4,10,13-tetrahydroxy-3,5,8,10,12,14-hexamethyl-15-oxo-1-oxa-6-azacyclopentadecan-11-yl)oxy)-6-methyl-3-phenoxytetrahydro-2H-pyran-4-yl)-1,3-dimethyl-3-phenylurea], the figures for the concentration for half-maximal inhibition (IC50) with TNF-α and in the test on IL-6 were 27 µM and 32 µM, respectively. Further, in the test with IL-1β, the “IL-1ß OS of LPS” value amounted to 16 µM. Also, in the test with P. multocida 46572, the “% Survival” value is recorded as 54%.
The like results for `CCCNC[C@]1(O)[C@H](C)O[C@@H](O[C@H]2[C@H](C)[C@@H](O[C@@H]3O[C@H](C)C[C@H](NC)[C@H]3Oc3ccc(Cl)nc3)[C@](C)(O)C[C@@H](C)CN[C@H](C)[C@@H](O)[C@](C)(O)[C@@H](CC)OC(=O)[C@@H]2C)C[C@@]1(C)OC` [Example E-8, (2R,3S,4R,5R,8R,10R,11R,12S,13S,14R)-11-(((2S,3R,4S,6R)-3-((6-chloropyridin-3-yl)oxy)-6-methyl-4-(methylamino)tetrahydro-2H-pyran-2-yl)oxy)-2-ethyl-3,4,10-trihydroxy-13-(((2R,4R,5S,6S)-5-hydroxy-4-methoxy-4,6-dimethyl-5-((propylamino)methyl)tetrahydro-2H-pyran-2-yl)oxy)-3,5,8,10,12,14-hexamethyl-1-oxa-6-azacyclopentadecan-15-one] were, in that order, 25 µM, 110 µM, 100 µM and 36%.
